Measured values as given in US8859549B2, “Potassium channel modulators” (AbbVie, Inc., priority 2011, dated 2014).

Molecular target: T1, KCNQ 2/3 channels (Homo sapiens, UniProt O43525+O43526)
T1 construct: expressed in transfected cells; host or cells: HEK293
Assay: KCNQ 2/3 channel activation, thallium flux FLIPR assay (BTC-AM dye)
Format: cell-based
Conditions: for Emax: HEK293, maximum response relative to the response of 10 μM retigabine (set at 100%), HEK293 KCNQ2/KCNQ3 cells, read-out: % MAX; for EC50: HEK293 cells stably expressing human KCNQ2 and KCNQ3 subunits, thallium-induced fluorescence, 4 min compound incubation
How it was run: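 HEK293 cells stably expressing human KCNQ2/KCNQ3 were loaded with BTC-AM (3 μg/mL, 2 h, RT) and preincubated with compound for 4 min in pH 7.3 gluconate buffer containing 0.1 mM ouabain. Flux was triggered by 6 mM TlNO3/10 mM K2SO4 and read for 3 min; EC50 came from summed responses over basal, with maximum relative to 10 μM retigabine (100%).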

Emax [%]	EC50 [µM]	SMILES
75.3	11.8	CC(C)(C)CC(=O)Nn1nc(N2CCOCC2)c2ccccc2c1=O [Example 135, 3,3-dimethyl-N-[4-(morpholin-4-yl)-1-oxophthalazin-2(1H)-yl]butanamide]
49.1	6.23	O=C(CC(F)(F)F)Nn1nc(N2CCOCC2)c2ccccc2c1=O [Example 136, 3,3,3-trifluoro-N-[4-(morpholin-4-yl)-1-oxophthalazin-2(1H)-yl]propanamide]
135	7.68	O=C(CC1CCCC1)Nn1nc(N2CCOCC2)c2ccccc2c1=O [Example 137, 2-cyclopentyl-N-[4-(morpholin-4-yl)-1-oxophthalazin-2(1H)-yl]acetamide]
153	3.89	O=C(CC1CCCCC1)Nn1nc(N2CCOCC2)c2ccccc2c1=O [Example 138, 2-cyclohexyl-N-[4-(morpholin-4-yl)-1-oxophthalazin-2(1H)-yl]acetamide]
-1.4		Cc1ccccc1CC(=O)Nn1nc(N2CCOCC2)c2ccccc2c1=O [Example 139, 2-(2-methylphenyl)-N-[4-(morpholin-4-yl)-1-oxophthalazin-2(1H)-yl]acetamide]
103	6.89	Cc1cccc(CC(=O)Nn2nc(N3CCOCC3)c3ccccc3c2=O)c1 [Example 140, 2-(3-methylphenyl)-N-[4-(morpholin-4-yl)-1-oxophthalazin-2(1H)-yl]acetamide]
72	5.24	Cc1ccc(CC(=O)Nn2nc(N3CCOCC3)c3ccccc3c2=O)cc1 [Example 141, 2-(4-methylphenyl)-N-[4-(morpholin-4-yl)-1-oxophthalazin-2(1H)-yl]acetamide]
1.59		O=C(Cc1ccccc1[N+](=O)[O-])Nn1nc(N2CCOCC2)c2ccccc2c1=O [Example 142, N-[4-(morpholin-4-yl)-1-oxophthalazin-2(1H)-yl]-2-(2-nitrophenyl)acetamide]
43.8		O=C(Cc1cccc(O)c1)Nn1nc(N2CCOCC2)c2ccccc2c1=O [Example 143, 2-(3-hydroxyphenyl)-N-[4-(morpholin-4-yl)-1-oxophthalazin-2(1H)-yl]acetamide]
39.9	6.87	O=C(Cc1ccc(O)cc1)Nn1nc(N2CCOCC2)c2ccccc2c1=O [Example 144, 2-(4-hydroxyphenyl)-N-[4-(morpholin-4-yl)-1-oxophthalazin-2(1H)-yl]acetamide]
1.73		COc1ccccc1CC(=O)Nn1nc(N2CCOCC2)c2ccccc2c1=O [Example 145, 2-(2-methoxyphenyl)-N-[4-(morpholin-4-yl)-1-oxophthalazin-2(1H)-yl]acetamide]
17.6		COc1cccc(CC(=O)Nn2nc(N3CCOCC3)c3ccccc3c2=O)c1 [Example 146, 2-(3-methoxyphenyl)-N-[4-(morpholin-4-yl)-1-oxophthalazin-2(1H)-yl]acetamide]
18.7		COc1ccc(CC(=O)Nn2nc(N3CCOCC3)c3ccccc3c2=O)cc1 [Example 147, 2-(4-methoxyphenyl)-N-[4-(morpholin-4-yl)-1-oxophthalazin-2(1H)-yl]acetamide]
18.7		O=C(Cc1ccccc1F)Nn1nc(N2CCOCC2)c2ccccc2c1=O [Example 148, 2-(2-fluorophenyl)-N-[4-(morpholin-4-yl)-1-oxophthalazin-2(1H)-yl]acetamide]
82.7	5.28	O=C(Cc1cccc(F)c1)Nn1nc(N2CCOCC2)c2ccccc2c1=O [Example 149, 2-(3-fluorophenyl)-N-[4-(morpholin-4-yl)-1-oxophthalazin-2(1H)-yl]acetamide]
71.7	12.9	O=C(Cc1ccc(F)cc1)Nn1nc(N2CCOCC2)c2ccccc2c1=O [Example 150, 2-(4-fluorophenyl)-N-[4-(morpholin-4-yl)-1-oxophthalazin-2(1H)-yl]acetamide]
7.89		O=C(Cc1ccccc1Cl)Nn1nc(N2CCOCC2)c2ccccc2c1=O [Example 151, 2-(2-chlorophenyl)-N-[4-(morpholin-4-yl)-1-oxophthalazin-2(1H)-yl]acetamide]
80	5.51	O=C(Cc1cccc(Cl)c1)Nn1nc(N2CCOCC2)c2ccccc2c1=O [Example 152, 2-(3-chlorophenyl)-N-[4-(morpholin-4-yl)-1-oxophthalazin-2(1H)-yl]acetamide]
1.17		O=C(Cc1ccccc1Br)Nn1nc(N2CCOCC2)c2ccccc2c1=O [Example 153, 2-(2-bromophenyl)-N-[4-(morpholin-4-yl)-1-oxophthalazin-2(1H)-yl]acetamide]
114	2.9	O=C(Cc1cccc(Br)c1)Nn1nc(N2CCOCC2)c2ccccc2c1=O [Example 154, 2-(3-bromophenyl)-N-[4-(morpholin-4-yl)-1-oxophthalazin-2(1H)-yl]acetamide]

Emax [%]	EC50 [µM]	SMILES
110	2.56	O=C(Cc1ccc(Br)cc1)Nn1nc(N2CCOCC2)c2ccccc2c1=O [Example 155, 2-(4-bromophenyl)-N-[4-(morpholin-4-yl)-1-oxophthalazin-2(1H)-yl]acetamide]
32.8		O=C(Cc1cccc([N+](=O)[O-])c1)Nn1nc(N2CCOCC2)c2ccccc2c1=O [Example 156, N-[4-(morpholin-4-yl)-1-oxophthalazin-2(1H)-yl]-2-(3-nitrophenyl)acetamide]
6.84		O=C(Cc1ccc(-c2ccccc2)cc1)Nn1nc(N2CCOCC2)c2ccccc2c1=O [Example 158, 2-(biphenyl-4-yl)-N-[4-(morpholin-4-yl)-1-oxophthalazin-2(1H)-yl]acetamide]
62.1	9.68	O=C(Cc1cccc(C(F)(F)F)c1)Nn1nc(N2CCOCC2)c2ccccc2c1=O [Example 160, N-[4-(morpholin-4-yl)-1-oxophthalazin-2(1H)-yl]-2-[3-(trifluoromethyl)phenyl]acetamide]
93		O=C(Cc1ccc(C(F)(F)F)cc1)Nn1nc(N2CCOCC2)c2ccccc2c1=O [Example 161, N-[4-(morpholin-4-yl)-1-oxophthalazin-2(1H)-yl]-2-[4-(trifluoromethyl)phenyl]acetamide]
87.4	1.52	O=C(Cc1cccc(OC(F)(F)F)c1)Nn1nc(N2CCOCC2)c2ccccc2c1=O [Example 162, N-[4-(morpholin-4-yl)-1-oxophthalazin-2(1H)-yl]-2-[3-(trifluoromethoxy)phenyl]acetamide]
30.8		O=C(Cc1ccc(Oc2ccccc2)cc1)Nn1nc(N2CCOCC2)c2ccccc2c1=O [Example 163, N-[4-(morpholin-4-yl)-1-oxophthalazin-2(1H)-yl]-2-(4-phenoxyphenyl)acetamide]
22		O=C(Cc1ccc(OCc2ccccc2)cc1)Nn1nc(N2CCOCC2)c2ccccc2c1=O [Example 164, 2-[4-(benzyloxy)phenyl]-N-[4-(morpholin-4-yl)-1-oxophthalazin-2(1H)-yl]acetamide]
7.96		O=C(Cc1cccc2ccccc12)Nn1nc(N2CCOCC2)c2ccccc2c1=O [Example 165, N-[4-(morpholin-4-yl)-1-oxophthalazin-2(1H)-yl]-2-(naphthalen-1-yl)acetamide]
15.6		O=C(Cc1ccc2ccccc2c1)Nn1nc(N2CCOCC2)c2ccccc2c1=O [Example 166, N-[4-(morpholin-4-yl)-1-oxophthalazin-2(1H)-yl]-2-(naphthalen-2-yl)acetamide]
3		Cc1ccc(C)c(CC(=O)Nn2nc(N3CCOCC3)c3ccccc3c2=O)c1 [Example 167, 2-(2,5-dimethylphenyl)-N-[4-(morpholin-4-yl)-1-oxophthalazin-2(1H)-yl]acetamide]
1.91		Cc1cc(C)c(CC(=O)Nn2nc(N3CCOCC3)c3ccccc3c2=O)c(C)c1 [Example 168, N-[4-(morpholin-4-yl)-1-oxophthalazin-2(1H)-yl]-2-(2,4,6-trimethylphenyl)acetamide]
23.6		COc1cccc(CC(=O)Nn2nc(N3CCOCC3)c3ccccc3c2=O)c1OC [Example 169, 2-(2,3-dimethoxyphenyl)-N-[4-(morpholin-4-yl)-1-oxophthalazin-2(1H)-yl]acetamide]
34.2		COc1ccc(CC(=O)Nn2nc(N3CCOCC3)c3ccccc3c2=O)c(OC)c1 [Example 170, 2-(2,4-dimethoxyphenyl)-N-[4-(morpholin-4-yl)-1-oxophthalazin-2(1H)-yl]acetamide]
51.7		COc1ccc(CC(=O)Nn2nc(N3CCOCC3)c3ccccc3c2=O)cc1OC [Example 172, 2-(3,4-dimethoxyphenyl)-N-[4-(morpholin-4-yl)-1-oxophthalazin-2(1H)-yl]acetamide]
33.9		COc1cc(CC(=O)Nn2nc(N3CCOCC3)c3ccccc3c2=O)cc(OC)c1 [Example 173, 2-(3,5-dimethoxyphenyl)-N-[4-(morpholin-4-yl)-1-oxophthalazin-2(1H)-yl]acetamide]
18.7		O=C(Cc1ccc2c(c1)OCO2)Nn1nc(N2CCOCC2)c2ccccc2c1=O [Example 174, 2-(1,3-benzodioxol-5-yl)-N-[4-(morpholin-4-yl)-1-oxophthalazin-2(1H)-yl]acetamide]
17.3		O=C(Cc1cccc(F)c1F)Nn1nc(N2CCOCC2)c2ccccc2c1=O [Example 175, 2-(2,3-difluorophenyl)-N-[4-(morpholin-4-yl)-1-oxophthalazin-2(1H)-yl]acetamide]
18		O=C(Cc1cc(F)ccc1F)Nn1nc(N2CCOCC2)c2ccccc2c1=O [Example 176, 2-(2,5-difluorophenyl)-N-[4-(morpholin-4-yl)-1-oxophthalazin-2(1H)-yl]acetamide]
131	0.628	O=C(Cc1ccc(Cl)c(Cl)c1)Nn1nc(N2CCOCC2)c2ccccc2c1=O [Example 177, 2-(3,4-dichlorophenyl)-N-[4-(morpholin-4-yl)-1-oxophthalazin-2(1H)-yl]acetamide]
